Measured values published in patent US20120301457A1 (priority 2010, published 2012).

The compounds below were run against recombinant mouse PrP (Mus musculus, UniProt P04925).
Format: biochemical
In the case of CCCCCCCCCCCCCCCC(=O)OC[C@H](COP(=O)(O)OCCN)OC(=O)CCCCCCCCCCCNc1ccc([N+](=O)[O-])c2nonc12 [16:0-12:0 NBD PE, 1-palmitoyl-2-{12-[(7-nitro-2-1,3-benzoxadiazol-4-yl)amino]lauroyl}-sn-glycero-3-phosphoethanolamine], the “ability to facilitate amplification and propagation of PrP^Sc” value (from here on “ability”) was “successfully facilitated propagation”.
In the case of CCCCCCCC/C=C\CCCCCCCC(=O)O[C@H](COC(=O)CCCCCCCCCCCCCCC)COP(=O)(O)OCCN [16:0-18:1 PE, 1-palmitoyl-2-oleoyl-sn-glycero-3-phosphoethanolamine], the “ability” value was “successfully facilitated propagation”.
With CCCCCCCC/C=C\CCCCCCCC(=O)O[C@H](CO/C=C\CCCCCCCCCCCCCCCC)COP(=O)(O)OCCN [C18(Plasm)-18:1 PE, 1-(1Z-octadecenyl)-2-oleoyl-sn-glycero-3-phosphoethanolamine] the “ability” value was “successfully facilitated propagation”.
In the case of CCCCC/C=C\C/C=C\C/C=C\C/C=C\CCCC(=O)O[C@H](CO/C=C\CCCCCCCCCCCCCCCC)COP(=O)(O)OCCN [C18(Plasm)-20:4 PE, 1-(1Z-octadecenyl)-2-arachidonoyl-sn-glycero-3-phosphoethanolamine], the “ability” value was “successfully facilitated propagation”.
For cerebrosides, the “ability” value was “facilitate prion amplification to a lesser extent”.
phosphatidic acid was tested, and the “ability” value was “facilitate prion amplification to a lesser extent”.
For phosphatidylcholine, the “ability” value was “facilitate prion amplification to a lesser extent”.
phosphatidylglycerol was tested, and the “ability” value was “facilitate prion amplification to a lesser extent”.
With phosphatidylinositol the “ability” value was “facilitate prion amplification to a lesser extent”.
For phosphatidylserine, the “ability” value was “facilitate prion amplification to a lesser extent”.
In the case of sulfatides, the “ability” value was “facilitate prion amplification to a lesser extent”.
